In ChEMBL document CHEMBL1201862, “PubChem BioAssay data set” (2004):
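Cultured in 96-well plates, cells were exposed to test compound for 48 hours across five concentrations. GI50 marks 50% less growth.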 Calls of active or inactive are those of the source. No stated cut-off is given here; in the data, active = GI50 up to about 1.1 µM and inactive = higher.

Columns and labels:
Experiment in all cases: DTP human tumour cell line panel, 48 h
CAKI-1 = test system: CAKI-1
DU-145 = test system: DU-145
EKVX = test system: EKVX
HCT-116 = test system: HCT-116
Hs-578T = test system: Hs-578T
IGROV-1 = test system: IGROV-1
KM12 = test system: KM12
LOX IMVI = test system: LOX IMVI
MCF7 = test system: MCF7
MDA-N = test system: MDA-N
NCI-H226 = test system: NCI-H226
NCI/ADR-RES = test system: NCI/ADR-RES
OVCAR-3 = test system: OVCAR-3
OVCAR-4 = test system: OVCAR-4
SF-539 = test system: SF-539
SK-MEL-2 = test system: SK-MEL-2
SK-OV-3 = test system: SK-OV-3
SN12C = test system: SN12C
SR = test system: SR
UACC-62 = test system: UACC-62

Measured: GI50

CN(C)CCCNC(=O)CCNC(=O)c1cc(NC(=O)c2cc(NC(=O)c3cc(NC(=O)c4nc(NC(=O)CCCNC(=O)c5cc(NC(=O)c6cc(NC(=O)c7cc(NC(=O)c8nccn8C)cn7C)cn6C)cn5C)cn4C)cn3C)cn2C)cn1C
inactive: CAKI-1 > 100 µM | DU-145 > 100 µM | EKVX > 100 µM | HCT-116 > 100 µM | Hs-578T > 100 µM | IGROV-1 > 100 µM | KM12 73.5 µM | LOX IMVI > 100 µM | MCF7 > 100 µM | MDA-N > 100 µM | NCI-H226 > 100 µM | NCI/ADR-RES > 100 µM | OVCAR-3 > 100 µM | OVCAR-4 > 100 µM | SF-539 > 100 µM | SK-MEL-2 > 100 µM | SK-OV-3 > 100 µM | SN12C > 100 µM | SR > 100 µM

NCC(=O)NC(CO)C(=O)O (stereo not drawn)
inactive: CAKI-1 > 100 µM | DU-145 > 100 µM | EKVX > 100 µM | HCT-116 > 100 µM | Hs-578T > 100 µM | IGROV-1 > 100 µM | KM12 > 100 µM | LOX IMVI > 100 µM | MCF7 > 100 µM | MDA-N > 100 µM | NCI-H226 > 100 µM | NCI/ADR-RES > 100 µM | OVCAR-3 > 100 µM | OVCAR-4 > 100 µM | SF-539 > 100 µM | SK-MEL-2 > 100 µM | SK-OV-3 > 100 µM | SN12C > 100 µM | UACC-62 > 100 µM

CCN1C(c2ccccc2)=CC(c2ccccc2)(C(Cl)(Cl)Cl)C=C1c1ccccc1
inactive: CAKI-1 30.8 µM | DU-145 14.8 µM | EKVX 4.22 µM | HCT-116 4.66 µM | Hs-578T 25.7 µM | IGROV-1 4.7 µM | KM12 3.31 µM | LOX IMVI 8.45 µM | MCF7 5.92 µM | MDA-N 4.94 µM | NCI-H226 19.2 µM | NCI/ADR-RES 40.1 µM | OVCAR-3 7 µM | OVCAR-4 24 µM | SF-539 15.6 µM | SN12C 45.3 µM | SR > 10 µM

O=C1CSCc2sccc21
inactive: CAKI-1 > 100 µM | DU-145 > 100 µM | EKVX > 100 µM | HCT-116 > 100 µM | Hs-578T > 100 µM | IGROV-1 > 100 µM | KM12 > 100 µM | MCF7 > 100 µM | MDA-N > 100 µM | NCI-H226 > 100 µM | NCI/ADR-RES > 100 µM | OVCAR-3 > 100 µM | OVCAR-4 > 100 µM | SF-539 > 100 µM | SK-MEL-2 > 100 µM | SK-OV-3 > 100 µM | SN12C > 100 µM | SR > 100 µM | UACC-62 > 100 µM

CN(C)C=C1C(=O)c2c(Br)sc(Br)c2C1=O
inactive: CAKI-1 18.1 µM | DU-145 28.5 µM | EKVX 18.9 µM | HCT-116 21.8 µM | Hs-578T 15.6 µM | IGROV-1 18.7 µM | KM12 30.1 µM | LOX IMVI 20 µM | MCF7 33.7 µM | MDA-N 19.7 µM | NCI-H226 16.3 µM | NCI/ADR-RES 26.1 µM | OVCAR-3 19.1 µM | OVCAR-4 13.8 µM | SF-539 18.2 µM | SK-MEL-2 14.1 µM | SK-OV-3 22 µM | SN12C 45.6 µM | UACC-62 17.1 µM
